Tests used:
[1] = Picosecond time-resolved infrared (TRIR) spectroscopy of excited states; type: physicochemical; conditions: dichloromethane, 266 nm excitation
Method: The ultrafast time-resolved infrared (TRIR) experiments were performed on the ‘ULTRA’ laser system at the Science and Technology Facilities Council Rutherford Appleton Laboratory. The capabilities of the ULTRA instrument are described in detail elsewhere. Briefly, a chirped pulse amplified titanium:sapphire laser operating at 10 kHz repetition rate produced 40-80 fs duration pulses at a wavelength of 800 nm. The UV excitation pulse was generated from third harmonic generation of the 800 nm output of the amplifier with ˜50 fs duration at 266 nm, irradiating samples with a 1 μJ, 100 μm diameter beam. The mid-IR probe pulse was generated using ˜0.4 mJ of the 800 nm femtosecond output to pump an optical parametric amplifier, and difference frequency mixing of the signal and idler components. The mid-IR probe output pulses had ˜500 cm-1 bandwidth and ˜50 fs pulse duration. The UV pulses were polarized at a magic angle to the IR probe laser polarization. The timing between the pump and probe was performed using a PCcontrolled optical delay line. The sample in solution was placed between two 25 mm diameter CaF2 plates in a rasterscanned Harrick cell to limit irradiation of the sample by multiple pulses. The optical path of the sample between the two windows was controlled using a 100 μm PTFE spacer and the solution flowed using a peristaltic pump. The intensity of the transmitted mid-IR light was dispersed by a grating onto a pair of 128-element mercury-cadmium telluride array detectors (IR Associates), providing full (i.e. ˜500 cm-1) spectral coverage with every laser pulse. The overall instrument response time was ˜200 fs. A reference spectrum of the laser pulse (before the Harrick cell) was accumulated on a third, 64-element array detector and was used to remove the effects of laser fluctuations from the transient absorption data. Ground-state FTIR spectra were recorded using a Nicolet Avatar 360 spectrometer.
FIGS. 12 and 13 show the TRIR spectra of both isomers of CA4 following ultrafast electronic excitation using 266 nm, with the ground-state FTIR spectra shown beneath the time resolved data for comparison. To date there has been little characterization of combretastatins by infrared spectroscopy. However, the ground-state FTIR spectra have obvious similarities with stilbene and on this basis we assign the 1586/1581 and 1510/1509 cm-1 bands in E-CA4/Z-CA4 to the v8a ring stretches of the phenyl groups and v19a ring stretch with additional contributions from C—H in-plane bending. In the excited state spectra, there are negative absorption bands corresponding to bleaching of the ground-state absorptions and both the E- and Z-isomers are dominated by transient bands between 1350 and 1500 cm-1. At early times the transient bands show rapid shifting over about 10 cm-1 to higher wavenumbers associated with rapid ‘cooling’ of excess vibrational energy following electronic excitation as commonly observed in other molecular systems including DNA [26] and for the C═C stretching band of E-stilbene observed by time-resolved resonance Raman spectroscopy. It is also notable that for E-CA4 at pump-probe delays up to 20 ps, the intensities of the transient bands increase and this is most likely due to molecular rearrangements taking place lowering the overall symmetry of the molecule and increasing the cross-sections of these IR active modes. […]

[2] = tested on: cells; conditions: typical toxicity assays; cited from earlier work
[3] = Isomerization by two-photon absorption at 590 nm in DMSO solution; type: physicochemical; conditions: Z-CA4 1 mM in DMSO, two-photon excitation 590 nm
Method: FIG. 11. […] (A) Power dependence of FI from E-CA4 (0.4 mM) versus laser power at the sample. (B) Percentage conversion of Z-CA4 to the E-isomer versus laser power at the sample, calculated from the measured FI from a solution of Z-CA4 (1 mM) and a series of calibration curves using solutions of E-CA4 at each laser power.
Using 2PE the photochemical effects occur within the femtolitre volume of excitation. […] At any one instant, the concentration of isomerized compound in the focal volume will represent a steady state achieved through the balance of diffusion from the focal volume and the rate of photochemical formation.
Calibration curves were constructed of FI versus E-CA4 concentration at each laser power. These were then compared with the FI from the two-photon experiment with Z-CA4 to estimate the concentration of E-CA4 formed within the focal volume.

[4] = Observed solubility in water; type: physicochemical; conditions: aqueous solution, comparison in words
[5] = Fluorescence quantum yields in solvents, UV one-photon excitation; type: physicochemical; conditions: 20° C., 290-300 nm excitation
Method: Absorption spectra were measured in either a Perkin Elmer Lambda 25 or 950 spectrophotometer. Fluorescence measurements were made with either a Spex Fluoromax or Varian Cary Eclipse spectrofluorimeter using the spectral correction curves supplied by the manufacturers. Fluorescence quantum yields with UV (one-photon) excitation were determined using either 2-aminopyridine (Φref 0.6 [7]) or 9-chloroanthracene (Φref 0.50 in dichloromethane, determined here relative to 9,10-diphenylanthracene in cyclohexane (Φref 0.97) and anthracene in ethanol (Φref 0.28 [8]) as standards. Fluorescence quantum yields were determined from the relative slopes of plots of integrated fluorescence intensity versus (1-10^−A) for samples having absorbance A≦0.1. The square of the refractive index (n^2) correction was applied when sample and reference compounds were in different solvents. Irradiation of the samples was minimized by the use of narrow excitation slits to reduce simultaneous photoisomerization.
The fluorescence quantum yields for E-CA4F were generally somewhat higher than for E-CA4.

[6] = Two-photon absorption cross section using reference fluorophore 9-chloroanthracene; type: physicochemical; conditions: at 620 nm, DCM
Source text: Cell images were overlaid using Adobe Photoshop CS3.
Published cross sections for two photon absorption (σ2, the probability of an absorption process or photon interaction) typically show large variations depending on the method of measurement, using either the Z-scan method or a reference fluorophore, and the power range and pulse duration of the laser used for excitation. We have attempted to determine values of σ2 for E-CA4 and E-ACA4 using a reference fluorophore. 9-Chloroanthracene (9CIA) was selected as a standard fluorophore with an appropriate fluorescence spectrum and for which 2PE cross-sections are available. The values of σ2 at 620 nm for E-CA4 and E-CA4F in DCM were determined to be 2.1±0.5 and 2.75±0.6 GM units respectively. […] Values of σ2 at 620 nm for E-ACA and E-DMAC were both 5.7±1.2. These larger values may be consistent with some charge transfer character of the excitation of these compounds.

[7] = Fluorescence lifetimes in solvents, two-photon excitation with TCSPC; type: physicochemical; conditions: 20° C., two-photon excitation 620-630 nm
Method: Fluorescence lifetimes were determined using 2PE at 630 nm with the microscope TCSPC setup (overall time response of 25 ps fwhm) and produced the results shown in Table 1. […] Characterisation of the spectroscopic properties of these latter two compounds remains to be investigated further. […] In the very viscous environment provided by glycerol the lifetime increases further to 1180 ps. In the range of alkanols studied the lifetime is closely correlated with solvent viscosity as shown in the inset to FIG. 3. […] However it is clear that the measured lifetime has the potential to report on cellular environments in FLIM studies. For E-CA4F similar trends are observed, but the overall differences in both lifetimes and quantum yields over the range of solvents are rather less than for E-CA4. The fluorescence lifetimes of E-CA4F are confined to a narrower range having values ranging from 440 ps in methanol through 740 ps in hexane to 1070 ps in glycerol. The more pronounced solvent dependence for E-CA4 no doubt reflects the more polar nature of the molecule compared with E-CA4F. The relative polarities may be judged from the partition coefficients (P) calculated according to the method of Brown et al..

SMILES | Excited state decay, longer lifetime (relaxed excited state) [1] [ps] | Excited state decay, shorter lifetime (biexponential fit) [1] [ps] | Concentrations required to kill cells [2] | Concentration of E-CA4 formed within the focal volume [3] | Conversion of the initial concentration of Z-CA4 to the E-isomer [3] [%] | Solubility in water [4] | Fluorescence quantum yield φ ([5]; DCM) | Fluorescence quantum yield φ ([5]; DMSO) | Fluorescence quantum yield φ ([5]; Hexane) | Fluorescence quantum yield φ ([5]; MeCN) | Fluorescence quantum yield φ ([5]; MeOH) | Two photon absorption cross section σ2 [6] [GM units] | Fluorescence lifetime τ ([7]; DMSO) [ns] | Fluorescence lifetime τ ([7]; EtOH, ne = non-exponential) | Fluorescence lifetime τ ([7]; Ethylene glycol, ne = non-exponential) | Fluorescence lifetime τ ([7]; Glycerol, ne = non-exponential) | Fluorescence lifetime τ ([7]; Hexane) [ns] | Fluorescence lifetime τ ([7]; MeCN, ne = non-exponential) [ns] | Fluorescence lifetime τ ([7]; MeOH, ne = non-exponential)
COc1ccc(/C=C\c2cc(OC)c(OC)c(OC)c2)cc1O [Z-CA4, combretastatin A4, reference compound] | 10.1±0.71 | 1.5±0.15 | nanomolar | about 250 μM | 25 |  |  |  |  |  |  |  |  |  |  |  |  |  | 
COc1ccc(/C=C/c2cc(OC)c(OC)c(OC)c2)cc1N [E-ACA, (E)-1-(3′-Amino-4′-methoxyphenyl)-2-(3″,4″,5″-trimethoxyphenyl)ethene] |  |  |  |  |  | more soluble in water than the other combretastatins studied here | 0.43 | 0.28 | 0.38 | 0.41 | 0.11 | 5.7±1.2 | 4.8 | ne | ne | ne | 1.65 | 3.6 | ne

Source: patent US20150359884A1, “MULTI-PHOTON ISOMERISATION OF COMBRETASTATINS AND THEIR USE IN THERAPY” (priority 2011, published 2015)
